From the Deep4Chem optical property database

Experiment: solvent given as SMILES

`O=c1c2cc(Cl)ccc2nc2n1[B-](F)(F)[n+]1ccccc1-2` showed an emission maximum (in CC#N) of 439 nm and an emission maximum (in ClCCl) of 444 nm.
`C[Si](C)(C)c1ccc(-c2ccc(-c3ccc(-c4ccc(-c5ccc([Si](C)(C)C)cc5)cc4)c4nsnc34)cc2)cc1` showed an emission maximum (in C1CCOC1) of 516 nm.
`COc1c(C(C)=O)c(=O)oc2cc(N(C)C)ccc12` showed an emission maximum (in ClCCl) of 419 nm.
For `Cc1cn(CCCn2cc(C)c(=O)[nH]c2=O)c(=O)nc1-n1cncn1`, the emission maximum (in O) was 382 nm.
With `N#Cc1ccc(-c2ccc3c(c2)c2cc(-c4ccc(C#N)cc4)ccc2c2c3nc(-c3ccc(-c4ccc(N(c5ccccc5)c5ccccc5)cc4)cc3)n2-c2ccccc2)cc1` the emission maximum (in C1CCOC1) was 468.68 nm, the emission maximum (in CC#N) was 519.93 nm and the emission maximum (in CCCCCC) was 421.18 nm. For the same molecule, the emission maximum (in CCOCC) was 449.2 nm.
Work on `COC(=O)c1ccc(Oc2ccc3c4c(cccc24)C(=O)N(c2c(C(C)C)cccc2C(C)C)C3=O)cc1` yielded an emission maximum (in ClCCl) of 421 nm.
Molecule `CCN(CC)c1ccc2c(c1)oc(=O)c1c(C)nc3c(cnn3-c3ccccc3)c12` has an emission maximum (in ClCCl) of 439 nm.
In the case of `C[NH+](C)c1c2ccccc2cc2ccccc12`, the emission maximum (in O) is reported as 400 nm.
Molecule `C(=N\c1ccc(-c2cn3nc(-c4cccs4)sc3n2)cc1)/c1c2ccccc2cc2ccccc12` has an emission maximum (in ClC(Cl)Cl) of 526 nm.
`CCN(CC)c1ccc2c(-c3ccccc3C(=O)O)c3c([o+]c2c1)/C(=C/C=C/c1ccc(N(C)C)cc1)CCC3` showed an emission maximum (in ClCCl) of 857 nm.
`F[Si-](F)(c1ccccc1)(c1ccccc1)c1cccc2ccccc12` gave an emission maximum (in C1CCOC1) of 338 nm.
Work on `Cc1ccc(C2C(C#N)=C(N)n3c(=O)c4ccccc4c(=O)n32)cc1` (stereo unspecified) yielded an emission maximum (in CS(C)=O) of 450 nm.
`COc1cccc(C2=c3c(c4ccc(C(C)(C)C)cc4c4cc(C(C)(C)C)ccc34)=[N+]3C2=C(c2ccccc2)c2c(-c4cccc(OC)c4)c4c5ccc(C(C)(C)C)cc5c5cc(C(C)(C)C)ccc5c4n2[B-]3(F)F)c1` showed an emission maximum (in C1CCCCC1) of 727 nm, an emission maximum (in C1CCOC1) of 737 nm and an emission maximum (in CC#N) of 721 nm. For the same molecule, the emission maximum (in Cc1ccccc1) was 730 nm and the emission maximum (in ClCCl) was 737 nm.
Molecule `CC(C)(C)c1cc(C#Cc2ccc3c(C#Cc4cc(C(C)(C)C)cc(C(C)(C)C)c4)cc4c5cc(C#Cc6cc(C(C)(C)C)cc(C(C)(C)C)c6)ccc5c(C#Cc5cc(C(C)(C)C)cc(C(C)(C)C)c5)cc4c3c2)cc(C(C)(C)C)c1` has an emission maximum (in ClCCl) of 439 nm.
With `Fc1ccc(-c2nc3n(c2-c2ccncc2)CCS3)cc1` the emission maximum (in C1CCCCC1) was 397.5 nm, the emission maximum (in C1CCOC1) was 414 nm and the emission maximum (in C1COCCO1) was 412 nm. For the same molecule, the emission maximum (in CC#N) was 420 nm, the emission maximum (in CC(C)(C)O) was 420 nm and the emission maximum (in CC(C)=O) was 418 nm. For the same molecule, the emission maximum (in CC(C)O) was 436 nm, the emission maximum (in CCO) was 438 nm and the emission maximum (in CCOC(C)=O) was 414 nm. It also gave an emission maximum (in CN(C)C=O) of 426 nm, an emission maximum (in CNC=O) of 446 nm and an emission maximum (in CO) of 439 nm. For the same molecule, the emission maximum (in CS(C)=O) was 436 nm, the emission maximum (in Cc1ccc(C)cc1) was 411.5 nm and the emission maximum (in Cc1ccccc1) was 412 nm. It also gave an emission maximum (in ClC(Cl)Cl) of 413.5 nm, an emission maximum (in ClCCl) of 415 nm and an emission maximum (in O) of 415 nm. It also gave an emission maximum (in OCCO) of 440.5 nm and an emission maximum (in c1ccncc1) of 434 nm.
`CN(C)c1ccc(-c2ccc(C#N)s2)s1` showed an emission maximum (in CCO) of 510 nm.
`O=C1c2ccccc2-c2c(-c3ccccc3O)[nH]c(=O)n21` showed an emission maximum (in CC#N) of 480 nm, an emission maximum (in CO) of 498 nm and an emission maximum (in ClCCl) of 477 nm.
For `COC(=O)c1nc2c(N(C)C)nc(N(C)C)nc2n1Cc1ccccc1`, the emission maximum (in C1COCCO1) was 402 nm, the emission maximum (in CC#N) was 415 nm and the emission maximum (in CO) was 432 nm. It also gave an emission maximum (in ClCCl) of 409 nm.
In the case of `COc1ccc(N(c2ccc(OC)cc2)c2ccc(-c3ccc4nc5ccccc5c(=O)n4c3)cc2)cc1`, the emission maximum (in ClCCl) is reported as 538 nm.
For `Fc1ccc2cc3cccc[n+]3cc2c1`, the emission maximum (in O) was 408 nm.
In the case of `CC(=O)Nc1ccc(/C=C2\OC(=O)c3cc(N)ccc32)cc1`, the emission maximum (in CC#N) is reported as 455.79 nm, the emission maximum (in CC(C)=O) is reported as 453.31 nm and the emission maximum (in CC(C)CO) is reported as 482.86 nm. The emission maximum (in CC(C)O) was 483.09 nm, the emission maximum (in CCCO) was 484.26 nm and the emission maximum (in CCO) was 485.91 nm. The emission maximum (in CCOC(C)=O) was 443.66 nm, the emission maximum (in CCOCC) was 429.92 nm and the emission maximum (in CO) was 490.2 nm.
